Experimental data from patent US10517889B2, “Modulators of SMAD7 expression” (Ionis Pharmaceuticals, Inc., priority 2017, dated 2019).
Strand notation (5' to 3'): a small letter for the sugar, then the base; units joined by * are phosphorothioate-linked, units joined directly phosphodiester-linked; [ ] holds rarer units or linkages, { } end groups; capitals alone tell only the bases. e = 2'-O-(2-methoxyethyl) (MOE); [5mC] = 5-methylcytosine; d = 2'-deoxy (DNA)

Test system: human SMAD7 mRNA
Experiment: Antisense inhibition of human SMAD7 mRNA expression in Hep3B cells by 5-10-5 MOE gapmers, single concentration, electroporation, RT-PCR (Example 1, Study 1 and 2)
Format: cell-based
Description: Antisense oligonucleotides were designed to target human SMAD7 mRNA and were tested for their effects on SMAD7 mRNA expression in vitro. Cultured Hep3B cells at a density of 20,000 cells per well were transfected using electroporation with antisense oligonucleotide ION 483663 (a 5-10-5 MOE gapmer), the sequence of which overlaps with ION 28453 (a 4-10-4 MOE gapmer) was included in these assays for comparison. ION 28453 has been previously disclosed in U.S. Pat. No. 6,159,697). After a treatment period of approximately 24 hours, RNA was isolated from the cells and SMAD7 mRNA levels were measured by quantitative real-time PCR. Primer probe set RTS5062 (forward sequence […], designated herein as SEQ ID NO: 11; reverse sequence […], designated herein as SEQ ID NO: 12; probe sequence […], designated herein as SEQ ID NO: 13) was used to measure human SMAD7 mRNA levels. SMAD7 mRNA levels were adjusted according to total RNA content, as measured by RIBOGREEN®. Results are presented as percent inhibition of SMAD7 mRNA expression, relative to untreated control cells.
The newly designed chimeric antisense oligonucleotides in the Tables below were designed as 5-10-5 MOE gapmers. The gapmers are 20 nucleosides in length, wherein the central gap segment comprises of ten 2′-deoxynucleosides and is flanked by wing segments on the 5′ direction and the 3′ direction comprising five nucleosides each. Each nucleoside in the 5′ wing segment and each nucleoside in the 3′ wing segment has a 2′-MOE modification. The internucleoside linkages throughout each gapmer are phosphorothioate (P═S) linkages. All cytosine residues throughout each gapmer are 5-methylcytosines.
“Start site” indicates the 5′-most nucleoside to which the gapmer is targeted in the human gene sequence. “Stop site” indicates the 3′-most nucleoside to which the gapmer is targeted human gene sequence.
Cultured Hep3B cells at a density of 20,000 cells per well were transfected using electroporation with 5,000 nM antisense oligonucleotide.
Cultured Hep3B cells at a density of 20,000 cells per well were transfected using electroporation with 15,000 nM antisense oligonucleotide. The antisense oligonucleotides were tested in a series of experiments that had similar culture conditions as described below.
Some of the oligonucleotides presented were complementary to SMAD7 mRNA sequences RefSeqNo. NM_001190821.1 (designated herein as SEQ ID NO: 3) or RefSeqNo. NM_001190822.1 (designated herein as SEQ ID NO: 4), and are presented in a separate table shown below.

[1] = electroporation, 15,000 nM antisense oligonucleotide (Study 2), 5-10-5 MOE gapmers targeting SEQ ID NO: 1 and 2
[2] = Study 2, electroporation with 15,000 nM antisense oligonucleotide, 5-10-5 MOE gapmers targeting SEQ ID NO: 1 and 2
[3] = electroporation, 5,000 nM, approximately 24 hours, relative to untreated control cells, gapmers targeting SEQ ID NO: 1 and 2
[4] = electroporation with 15,000 nM antisense oligonucleotide (Study 2), 5-10-5 MOE gapmers targeting SEQ ID NO: 1 and 2
[5] = electroporation, 15,000 nM, approximately 24 hours, gapmers targeting SEQ ID NO: 3 and 4

With “483664 (antisense eT*eG*e[5mC]*eT*e[5mC]*dA*dG*d[5mC]*dT*d[5mC]*dA*d[5mC]*dG*d[5mC]*dT*e[5mC]*eT*eG*eT*e[5mC]) [compound 483664]” the “% inhibition of SMAD7 mRNA expression” value [1] was 36%.
With “483665 (antisense eG*e[5mC]*eG*eA*eA*d[5mC]*dA*dT*dG*dA*d[5mC]*d[5mC]*dT*d[5mC]*d[5mC]*eG*e[5mC]*eA*e[5mC]*eA) [compound 483665]” the “% Inhibition” value [2] was 55% and the “% inhibition of SMAD7 mRNA expression” value [3] was 10%.
In the case of “582468 (antisense eG*e[5mC]*e[5mC]*eA*eA*dT*dA*dT*d[5mC]*dA*dT*dA*dA*d[5mC]*d[5mC]*e[5mC]*eA*eA*eG*e[5mC]) [compound 582468]”, the “% inhibition of SMAD7 mRNA expression” value [2] is reported as 4% and the “% inhibition of SMAD7 mRNA expression” value [4] is reported as 0%.
For “771342 (antisense eT*e[5mC]*eA*eG*eT*dT*dG*dG*dT*dT*dT*dG*dA*dG*dA*eA*eA*eA*eT*e[5mC]) [compound 771342]”, the “% inhibition of SMAD7 mRNA expression” value [5] was 35%.
In the case of “771343 (antisense eG*eA*e[5mC]*eA*eG*dT*d[5mC]*dA*dG*dT*dT*dG*dG*dT*dT*eT*eG*eA*eG*eA) [compound 771343]”, the “% inhibition of SMAD7 mRNA expression” value [5] is reported as 0%.
In the case of “771344 (antisense eA*eT*e[5mC]*eT*eG*dG*dA*d[5mC]*dA*dG*dT*d[5mC]*dA*dG*dT*eT*eG*eG*eT*eT) [compound 771344]”, the “% inhibition of SMAD7 mRNA expression” value [5] is reported as 17%.
In the case of “771346 (antisense e[5mC]*eG*eT*eG*eA*dT*dT*d[5mC]*dT*d[5mC]*d[5mC]*dG*dT*dA*dT*eT*eT*eA*e[5mC]*eT) [compound 771346]”, the “% Inhibition” value [2] is reported as 22%.
“771347 (antisense eT*eG*eG*eG*e[5mC]*d[5mC]*dA*d[5mC]*dT*dG*dG*dT*dG*dT*dT*e[5mC]*eG*eA*e[5mC]*eG) [compound 771347]” was tested, and the “% Inhibition of SMAD7 mRNA” value [4] was 32% and the “% inhibition of SMAD7 mRNA expression” value [1] was 0%.
In the case of “771348 (antisense eG*eG*e[5mC]*e[5mC]*eA*d[5mC]*dG*dA*d[5mC]*dA*dG*dT*dA*dT*d[5mC]*eT*eG*eG*eG*e[5mC]) [compound 771348]”, the “% inhibition of SMAD7 mRNA expression” value [1] is reported as 42%.
With “771349 (antisense eA*e[5mC]*eT*e[5mC]*e[5mC]*dA*dA*dA*dG*dG*dT*dG*d[5mC]*dG*d[5mC]*eG*eG*e[5mC]*e[5mC]*eA) [compound 771349]” the “% inhibition of SMAD7 mRNA expression” value [1] was 26%.
“771350 (antisense eT*eT*eT*eG*e[5mC]*d[5mC]*d[5mC]*d[5mC]*dA*dA*dA*dA*d[5mC]*dT*d[5mC]*e[5mC]*eA*eA*eA*eG) [compound 771350]” was tested, and the “% Inhibition” value [2] was 28% and the “% inhibition of SMAD7 mRNA expression” value [3] was 68%.
With “771351 (antisense e[5mC]*eT*e[5mC]*eT*e[5mC]*dT*dT*dT*dG*d[5mC]*d[5mC]*d[5mC]*d[5mC]*dA*dA*eA*eA*e[5mC]*eT*e[5mC]) [compound 771351]” the “% Inhibition” value [2] was 11%.
